What was measured:
Assay type in all cases: cell-based, human
22RV1 cells [1] = assay: 22RV1 apoptosis (Caspase-glo 3/7); conditions: 72 hours; for Apoptosis (% untreated control): 22RV1 cells
Description: After a treatment period of 72 hours in complete medium or CSS+DHT medium, apoptosis of the cancer cells was measured with Caspase-glo 3/7 assay kit (Promega). Results are presented in Tables 131 and 132 as percent apoptosis of the cells, relative to non-treated cells.

22RV1 cells [2] = assay: 22RV1 cell proliferation with/without DHT (MTT); conditions: 5 days; for Percent inhibition of 22RV1 cell proliferation: RNAiMAX
Description: 22RV1cells were plated at 1,500 cells per well. […] Separate sets of cells, also treated with each of the antisense oligonucleotides, were treated with DHT added on day 1 at a final concentration of 1 nM. After a treatment period of 5 days, the proliferative ability of the cancer cells was measured using the standard MTT assay. Results are presented in Table 69 as percent inhibition of proliferation, relative to non-treated cells.

[3] = system: prostate-specific antigen (PSA) mRNA; assay: Time-course PSA expression in C4-2B cells
Method in brief: (§1)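 C4-2B cells at 1,000/well in complete medium, treated with antisense oligonucleotide; ISIS 549148 as negative control. PSA and TMPRSS2 mRNA measured after 8, 24 and 48 h, given as percent inhibition relative to non-treated cells.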

22RV1 cells [4] = assay: 22RV1 cell proliferation (Example 32); conditions: 5 days; for Proliferation (% untreated control): 22RV1 cells, complete medium
Method in brief: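 Cells were treated for 5 days in complete medium. Proliferation was then read with a tetrazolium (AQueous One) or ATP-luminescence (CellTiter-Glo) assay.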

PSA mRNA = assay: PSA expression in C4-2B cells (Example 30); conditions: 48 hrs
Method in brief: (§2)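 C4-2B cells were plated at 1,000 cells per well in complete medium, or at 2,000 cells per well in CSS medium with 1 nM DHT. ISIS 549148 served as the negative control. AR, PSA and TMPRSS2 RNA levels were measured after 48 hrs.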

TMPRSS2 mRNA [5] = assay: Time-course TMPRSS2 expression in C4-2B cells
Method in brief: as §1

TMPRSS2 mRNA [6] = assay: TMPRSS2 expression in C4-2B cells (Example 30); conditions: 48 hrs
Method in brief: as §2

VCaP cells = assay: VCaP cell proliferation; conditions: 5 days; for Proliferation (% untreated control): VCaP cells
Method in brief: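 VCaP cells treated 5 days in complete medium or charcoal-stripped serum medium with 1 nM DHT; proliferation read by CellTiter 96 AQueous One or CellTiter-Glo.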

TTGATTTAATGGTTGC [ISIS 560131] (MOE and (S)-cEt gapmer chemistry, further chemistry not given here) [targets intron 1]
Apoptosis (% untreated control) (22RV1 cells [1]; CSS + DHT medium, 1.34 nM): 121 % untreated control | Apoptosis (% untreated control) (22RV1 cells [1]; CSS + DHT medium, 4.0 nM): 113 % untreated control | Apoptosis (% untreated control) (22RV1 cells [1]; CSS + DHT medium, 13.4 nM): 172 % untreated control | Apoptosis (% untreated control) (22RV1 cells [1]; CSS + DHT medium, 40 nM): 518 % untreated control | Apoptosis (% untreated control) (22RV1 cells [1]; complete medium, 1.34 nM): 99 % untreated control | Apoptosis (% untreated control) (22RV1 cells [1]; complete medium, 4.0 nM): 127 % untreated control | Apoptosis (% untreated control) (22RV1 cells [1]; complete medium, 13.4 nM): 131 % untreated control | Apoptosis (% untreated control) (22RV1 cells [1]; complete medium, 40 nM): 566 % untreated control | apoptosis of 22RV1 cells (22RV1 cells [1]; complete or CSS+DHT medium): increased apoptosis of the cells in a dose dependent compared to the control | Percent inhibition of 22RV1 cell proliferation (22RV1 cells [2]; +DHT (1 nM), ASO 1.34 nM): 0% | Percent inhibition of 22RV1 cell proliferation (22RV1 cells [2]; +DHT (1 nM), ASO 4.0 nM): 1% | Percent inhibition of 22RV1 cell proliferation (22RV1 cells [2]; +DHT (1 nM), ASO 13.4 nM): 13% | Percent inhibition of 22RV1 cell proliferation (22RV1 cells [2]; +DHT (1 nM), ASO 40.0 nM): 34% | 22RV1 cell proliferation (22RV1 cells [2]; with or without 1 nM DHT): significantly inhibited prostate cancer cell proliferation even in the presence of AR activator, DHT, compared to the control | Percent inhibition of 22RV1 cell proliferation (22RV1 cells [2]; −DHT, ASO 1.34 nM): 0% | Percent inhibition of 22RV1 cell proliferation (22RV1 cells [2]; −DHT, ASO 4.0 nM): 2% | Percent inhibition of 22RV1 cell proliferation (22RV1 cells [2]; −DHT, ASO 13.4 nM): 29% | Percent inhibition of 22RV1 cell proliferation (22RV1 cells [2]; −DHT, ASO 40.0 nM): 54% | Percent inhibition of PSA expression compared to the control group in 8 hours ([3]; 0.04 μM): 12% | Percent inhibition of PSA expression compared to the control group in 24 hours ([3]; 0.04 μM): 27% | Percent inhibition of PSA expression compared to the control group in 48 hours ([3]; 0.04 μM): 20% | Percent inhibition of PSA expression compared to the control group in 8 hours ([3]; 0.2 μM): 0% | Percent inhibition of PSA expression compared to the control group in 24 hours ([3]; 0.2 μM): 46% | Percent inhibition of PSA expression compared to the control group in 48 hours ([3]; 0.2 μM): 61% | Percent inhibition of PSA expression compared to the control group in 8 hours ([3]; 1 μM): 3% | Percent inhibition of PSA expression compared to the control group in 24 hours ([3]; 1 μM): 56% | Percent inhibition of PSA expression compared to the control group in 48 hours ([3]; 1 μM): 71% | Percent inhibition of PSA expression compared to the control group in 8 hours ([3]; 5.0 μM): 1% | Percent inhibition of PSA expression compared to the control group in 24 hours ([3]; 5.0 μM): 60% | Percent inhibition of PSA expression compared to the control group in 48 hours ([3]; 5.0 μM): 80% | PSA expression ([3]; time course): reduced PSA and TMPRSS2 expression in the cells relative to the control set at the 24 hr and 48 hr time points | Proliferation (% untreated control) (22RV1 cells [4]; 1.34 nM): 94 % untreated control | Proliferation (% untreated control) (22RV1 cells [4]; 4.0 nM): 72 % untreated control | Proliferation (% untreated control) (22RV1 cells [4]; 13.4 nM): 50 % untreated control | Proliferation (% untreated control) (22RV1 cells [4]; 40 nM): 17 % untreated control | proliferation of 22RV1 cells (22RV1 cells [4]): reduced proliferation of the cells in a dose dependent compared to the control | Percent inhibition of PSA expression (PSA mRNA; CSS + DHT medium, 0.04 μM): 0% | Percent inhibition of PSA expression (PSA mRNA; CSS + DHT medium, 0.2 μM): 17% | Percent inhibition of PSA expression (PSA mRNA; CSS + DHT medium, 1 μM): 50% | Percent inhibition of PSA expression (PSA mRNA; CSS + DHT medium, 5.0 μM): 61% | Percent inhibition of PSA expression (PSA mRNA; complete medium, 0.04 μM): 56% | Percent inhibition of PSA expression (PSA mRNA; complete medium, 0.2 μM): 84% | Percent inhibition of PSA expression (PSA mRNA; complete medium, 1 μM): 89% | Percent inhibition of PSA expression (PSA mRNA; complete medium, 5.0 μM): 92% | Percent inhibition of TMPRSS2 expression compared to the control group in 8 hours (TMPRSS2 mRNA [5]; 0.04 μM): 0% | Percent inhibition of TMPRSS2 expression compared to the control group in 24 hours (TMPRSS2 mRNA [5]; 0.04 μM): 35% | Percent inhibition of TMPRSS2 expression compared to the control group in 48 hours (TMPRSS2 mRNA [5]; 0.04 μM): 46% | Percent inhibition of TMPRSS2 expression compared to the control group in 8 hours (TMPRSS2 mRNA [5]; 0.2 μM): 0% | Percent inhibition of TMPRSS2 expression compared to the control group in 24 hours (TMPRSS2 mRNA [5]; 0.2 μM): 57% | Percent inhibition of TMPRSS2 expression compared to the control group in 48 hours (TMPRSS2 mRNA [5]; 0.2 μM): 71% | Percent inhibition of TMPRSS2 expression compared to the control group in 8 hours (TMPRSS2 mRNA [5]; 1 μM): 6% | Percent inhibition of TMPRSS2 expression compared to the control group in 24 hours (TMPRSS2 mRNA [5]; 1 μM): 66% | Percent inhibition of TMPRSS2 expression compared to the control group in 48 hours (TMPRSS2 mRNA [5]; 1 μM): 77% | Percent inhibition of TMPRSS2 expression compared to the control group in 8 hours (TMPRSS2 mRNA [5]; 5.0 μM): 0% | Percent inhibition of TMPRSS2 expression compared to the control group in 24 hours (TMPRSS2 mRNA [5]; 5.0 μM): 67% | Percent inhibition of TMPRSS2 expression compared to the control group in 48 hours (TMPRSS2 mRNA [5]; 5.0 μM): 76% | TMPRSS2 expression (TMPRSS2 mRNA [5]; time course): reduced PSA and TMPRSS2 expression in the cells relative to the control set at the 24 hr and 48 hr time points | Percent inhibition of TMPRSS2 expression (TMPRSS2 mRNA [6]; CSS + DHT medium, 0.04 μM): 0% | Percent inhibition of TMPRSS2 expression (TMPRSS2 mRNA [6]; CSS + DHT medium, 0.2 μM): 34% | Percent inhibition of TMPRSS2 expression (TMPRSS2 mRNA [6]; CSS + DHT medium, 1 μM): 60% | Percent inhibition of TMPRSS2 expression (TMPRSS2 mRNA [6]; CSS + DHT medium, 5.0 μM): 76% | Percent inhibition of TMPRSS2 expression (TMPRSS2 mRNA [6]; complete medium, 0.04 μM): 46% | Percent inhibition of TMPRSS2 expression (TMPRSS2 mRNA [6]; complete medium, 0.2 μM): 71% | Percent inhibition of TMPRSS2 expression (TMPRSS2 mRNA [6]; complete medium, 1 μM): 72% | Percent inhibition of TMPRSS2 expression (TMPRSS2 mRNA [6]; complete medium, 5.0 μM): 75% | Proliferation (% untreated control) (VCaP cells; CSS + DHT medium, 1.34 nM): 95 % untreated control | Proliferation (% untreated control) (VCaP cells; CSS + DHT medium, 4.0 nM): 65 % untreated control | Proliferation (% untreated control) (VCaP cells; CSS + DHT medium, 13.4 nM): 42 % untreated control | Proliferation (% untreated control) (VCaP cells; CSS + DHT medium, 40 nM): 37 % untreated control | Proliferation (% untreated control) (VCaP cells; complete medium, 1.34 nM): 98 % untreated control | Proliferation (% untreated control) (VCaP cells; complete medium, 4.0 nM): 66 % untreated control | Proliferation (% untreated control) (VCaP cells; complete medium, 13.4 nM): 53 % untreated control | Proliferation (% untreated control) (VCaP cells; complete medium, 40 nM): 48 % untreated control | proliferation of VCaP cells (VCaP cells; complete medium or CSS+1 nM DHT): reduced proliferation of the cells in a dose dependent compared to the control

— USRE48461E1, “Modulation of androgen receptor expression” (Ionis Pharmaceuticals, Inc., priority 2012, dated 2021)
